This is an account of results in patent US10308916B2, “Omega-transaminase mutants with activity improvements toward ketones and methods for producing optically pure amines” (Industry-Academic Cooperation Foundation, Yonsei University, priority 2015, dated 2019).

Read-outs that look alike come from different tables or passages of the source.

The test system of series [1] is OATA WT. The class given is biochemical, Ochrobactrum anthropi. The following applies: pH 7.
In series [2] the test system is OATA WT. The class given is biochemical.
Series [3] deals with OATA WT. The class given is biochemical. This is another data set of the same source.
Series [4] deals with OATA WT. The class given is biochemical, Ochrobactrum anthropi.
Series [5] addresses OATA (Brucella anthropi, UniProt A6WVC6). The class given is biochemical.
Series [6] relates to OATA WT. The class given is biochemical, Ochrobactrum anthropi. This is another data set of the same source.
For series [7], the system named is OATA WT. The class given is biochemical. This is another data set of the same source.
Series [8] deals with ARTAmut. The following applies: cited from earlier work.
The subject of series [9] is (S)-selective omega-transaminase from Ochrobactrum anthropi. The following applies: cited from earlier work.
For series [10], the system named is OATA W58A. The class given is biochemical. The following applies: pH 7.
Series [11] concerns OATA W58V. The class given is biochemical. Particulars: pH 7.
For series [12], the system named is OATA W58I. The class given is biochemical. The following applies: pH 7.
The test system of series [13] is OATA W58L. The class given is biochemical. Particulars: pH 7.
For series [14], the system named is OATA W58M. The class given is biochemical. The following applies: pH 7.
Series [15] concerns OATA L57A. The class given is biochemical.
The subject of series [16] is OATA W58A. The class given is biochemical.
Series [17] relates to OATA L57A/W58A. The class given is biochemical.
Series [18] relates to OATA L57A/W58A/V154A. The class given is biochemical.
Series [19] has as its system OATA WT. The class given is biochemical, Ochrobactrum anthropi. This is another data set of the same source.
For series [20], the system named is CC(=O)C(=O)O. Kind of series: purified protein, by the assay type.

Turning to 1-acetonaphthone [Ketone 1i], the “Relative activity to acetophenone, OATA WT” value in [1] was 43%. Besides, the “Conversion (%) OATA” value in [2] is 13%.
In the case of `CC(C)C(N)c1ccccc1` (racemic) [2-Methyl-1-phenylpropan-1-amine], the “Relative reactivity, OATA” value in series [3] is listed as 0.1%.
As for `CC(N)CO` (racemic) [DL-Alaninol], the “Relative reactivity, OATA” value in [3] came out at 16%.
Still for that read-out and setting: to `CC(C)C(C)N` (stereo not shown) [1,2-Dimethylpropylamine] belongs 18%; to `CC(C)CC(C)N` (stereo not shown) [1,3-Dimethylbutylamine], 3%.
Consider `COCC(C)N` (stereo not shown) [1-Methoxy-2-propylamine], for which the “Relative reactivity, OATA” value in series [3] was 29%.
Turning to `CC(N)CCc1ccccc1` (stereo not shown) [1-Methyl-3-phenylpropylamine], the “Relative reactivity, OATA” value in series [3] is given as 73%.
Regarding `CC(C)(C)C(N)c1ccccc1` (stereo not shown) [2,2-Dimethyl-1-phenylpropan-1-amine], in [3], the “Relative reactivity, OATA” value worked out at 0.1%.
Still for that read-out and setting: to `CCCC(C)N` (stereo not shown) [2-Aminopentane] belongs 13%.
Take `CCC(=O)C(=O)O` [2-oxobutanoic acid]: the “Relative activity, OATA WT” value in series [4] came out at 17.2%.
`CCCCC(=O)C(=O)O` [2-oxohexanoic acid]: the “Relative activity, OATA WT” value in series [4] is 1%.
On to `CCCCCCC(=O)C(=O)O` [2-oxooctanoic acid], for which, in [4], the “Relative activity, OATA WT” value came out at 1%.
Same read-out and setting: next, `CCCC(=O)C(=O)O` [2-oxopentanoic acid]: 0.6%.
On the same count and under the same terms, to `CC(C)C(=O)C(=O)O` [3-methyl-2-oxobutyric acid] belongs “did not react”.
In the case of `CC(N)c1ccc(F)cc1` (stereo not drawn) [4-Fluoro-α-methylbenzylamine], the “Relative reactivity, OATA” value in [3] was 31%.
On the same count and under the same terms, next, `C[C@H](N)c1cccc2ccccc12` [(S)-1-(1-naphthyl)ethylamine]: 0.5%; `C[C@H](N)C1CC1` [(S)-1-Cyclopropylethylamine]: 29%.
Still for that read-out and setting: to `N[C@H]1CCc2ccccc21` [(S)-1-aminoindan] belongs 9%.
The same measure, in the same setting: to `CCCC[C@H](C)N` [(S)-2-aminohexane] belongs 31%; to `CCCCCC[C@H](C)N` [(S)-2-aminooctane], 146%; to `COc1ccc([C@H](C)N)cc1` [(S)-4-methoxy-α-methylbenzylamine], 116%.
`Cc1ccc([C@H](C)N)cc1` [(S)-α,4-dimethylbenzylamine]: in [3], the “Relative reactivity, OATA” value worked out at 86%.
Still for that read-out and setting: next, `CC[C@H](N)c1ccccc1` [(S)-α-ethylbenzylamine]: 2%.
On to `C[C@H](N)c1ccccc1` [(S)-α-methylbenzylamine], for which, in series [5], the “kcat, OATA” value is 24000, 20000 ×10^−3 s^−1. Also, in series [3], the “Relative reactivity, OATA” value was 100%. In [6], the “Relative activity, OATA WT” value amounted to 100%.
As to `CCC[C@H](N)c1ccccc1` [(S)-α-propylbenzylamine], the “Relative reactivity, OATA” value in series [3] was determined as 0.2%.
Same read-out and setting: next, `NCc1ccccc1` [Benzylamine]: 274%.
For the molecule `CC(C)N` [Isopropylamine], the “kcat, OATA” value in [5] is on record as 9700, 9300 ×10^−3 s^−1. Moreover, the “Relative reactivity, OATA” value in [3] worked out at 20%.
Turning to `CC(=O)c1ccccc1` [Ketone 1a, acetophenone], the “Relative activity to acetophenone, OATA WT” value in [1] is recorded as 100%. Besides, in series [7], the “Relative activity, OATA WT” value is on record as 100%. Besides, in [5], the “kcat, OATA” value is reported as 9.7, 540 ×10^−3 s^−1. Moreover, in series [8], the Conversion is recorded as 19%. In addition, the “activity relative to pyruvate” value in [9] is reported as 0.03%.
As for `CCC(=O)c1ccccc1` [Ketone 1b, propiophenone], the “Relative activity to acetophenone, OATA WT” value in [1] turned out to be 1%. In addition, the “Relative activity to acetophenone, OATA W58A” value in series [10] is recorded as 14%. Moreover, the “Relative activity to acetophenone, OATA W58V” value in series [11] was 16%. In series [12], the “Relative activity to acetophenone, OATA W58I” value is 14%. Besides, in series [13], the “Relative activity to acetophenone, OATA W58L” value stood at 2%. Moreover, in series [14], the “Relative activity to acetophenone, OATA W58M” value stood at 17%. Moreover, the “Relative activity, OATA WT” value in series [7] is reported as 17%. Moreover, in [15], the “Relative activity, OATA L57A” value came out at 49%. Moreover, the “Relative activity, OATA W58A” value in [16] was 259%. Further, the “Relative activity, OATA L57A/W58A” value in [17] is on record as 387%. The “Relative activity, OATA L57A/W58A/V154A” value in series [18] is 821%.
With `CCCC(=O)c1ccccc1` [Ketone 1c, butyrophenone], the “Relative activity to acetophenone, OATA WT” value in [1] is on record as 0%. The “Relative activity, OATA WT” value in [7] turned out to be 2%.
Regarding `CC(=O)c1ccc(C)cc1` [Ketone 1d, 4-methylacetophenone], the “Relative activity to acetophenone, OATA WT” value in [1] worked out at 51%. Also, the “Conversion (%) OATA” value in [2] is given as 7%.
Regarding `COc1ccc(C(C)=O)cc1` [Ketone 1e, 4-methoxyacetophenone], in series [1], the “Relative activity to acetophenone, OATA WT” value is on record as 29%.
As for `CC(=O)CCc1ccccc1` [Ketone 1f, benzylacetone], in [1], the “Relative activity to acetophenone, OATA WT” value was determined as 536%. For the same molecule, the “Conversion (%) OATA” value in [2] worked out at 26%.
As to `O=C1CCc2ccccc21` [Ketone 1g], the “Reaction rate OATA” value in [19] was “did not react”.
The same measure, in the same setting: to `O=C1CCCc2ccccc21` [Ketone 1h] belongs “did not react”.
As for `CCCC(C)=O` [Ketone 1j, 2-pentanone], the “Relative activity to acetophenone, OATA WT” value in series [1] turned out to be 83%.
Take `CCCCC(C)=O` [Ketone 1k, 2-hexanone]: in [1], the “Relative activity to acetophenone, OATA WT” value amounted to 151%. The “Conversion (%) OATA” value in series [2] is 14%.
The matching figures for `CCCCCCC(C)=O` [Ketone 1l, 2-octanone]: 208% and 30%.
For `CC(=O)C(C)C` [Ketone 1m, 3-methyl 2-butanone], the “Relative activity to acetophenone, OATA WT” value in [1] turned out to be 161%.
Turning to `CC(=O)CC(C)C` [Ketone 1n, 4-methyl-2-pentanone], the “Relative activity to acetophenone, OATA WT” value in series [1] was determined as 21%.
For the molecule `CCC(C)=O` [Ketone 2-butanone, 2-butanone], the “Relative activity to acetophenone, OATA WT” value in [1] was 317%.
Take `Cc1cccc(C)c1OCC(C)N` (stereo not shown) [Mexiletine, reference compound]: in series [3], the “Relative reactivity, OATA” value amounted to 27%.
As to `CC(=O)CO` [hydroxyacetone], the “Relative activity to acetophenone, OATA WT” value in series [1] worked out at 364%.
On to `COCC(C)=O` [methoxyacetone], for which the “Relative activity to acetophenone, OATA WT” value in series [1] is on record as 571%.
As to `CC(=O)C(=O)O` [pyruvate, pyruvic acid], the “Relative activity, OATA WT” value in [4] stood at 100%.
Consider (Brucella anthropi ATCC 49188), for which, in [20], the Km is 0.12, 2.1 mM; the kcat is listed as 2600, 19000; the kcat/Km is recorded as 22000, 9000.
On to (S)-sec-butylamine, for which the “Relative reactivity, OATA” value in series [3] came to 29%.
Take cyclpropyl methyl ketone [Ketone 1o]: the “Relative activity to acetophenone, OATA WT” value in series [1] is listed as 17%.
